From PubChem BioAssay (NCI) come the findings set out here.

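Protocol summary: plate cells (96-well), add compound at 5 concentrations, incubate 48 h, interpolate endpoints linearly. At the TGI there is no net growth.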

Test systems include HT29 colon; SK-MEL-5 melanoma; NCI/ADR-RES ovarian; NCI-H226 lung; MALME-3M melanoma; MDA-N; M14 melanoma; DU-145 prostate; BT-549 breast; HOP-92 NSCLC.
What all share (experiment): NCI-60 cell line screen, 48 h

Turning to `CN(C)CCCNC(=O)N/N=C/c1ccc(O)cc1`, the TGI in the assay with HT29 colon, in the assay with SK-MEL-5 melanoma, in the assay with NCI/ADR-RES ovarian, with NCI-H226 lung, with MALME-3M melanoma and in the assay on MDA-N was greater than 100 µM throughout. In addition, the TGI in the assay with M14 melanoma, in the assay on DU-145 prostate and in the assay with BT-549 breast was greater than 100 µM in each case.
Consider `Cc1ccc(C2(O)c3ccccc3C(=O)N(C)C2(O)c2ccc(C)cc2)cc1` (stereo not given), for which the TGI in the assay with HT29 colon is greater than 100 µM; in the assay on SK-MEL-5 melanoma, greater than 100 µM; in the assay with HOP-92 NSCLC, 91.1 µM; in the assay with NCI/ADR-RES ovarian it was greater than 100 µM; in the assay with MALME-3M melanoma, greater than 100 µM; in the assay on MDA-N, greater than 100 µM. For the same compound, the TGI with M14 melanoma, in the assay with DU-145 prostate and in the assay with BT-549 breast was greater than 100 µM in each case.
Regarding `C/C=C1\CC(C(=O)OCC)CCCCCCC1=O` (stereo not given), the TGI with HT29 colon, in the assay on SK-MEL-5 melanoma, in the assay on NCI/ADR-RES ovarian, in the assay with NCI-H226 lung, with MALME-3M melanoma and in the assay with MDA-N was greater than 100 µM in each case. The TGI in the assay on M14 melanoma, in the assay with DU-145 prostate and in the assay on BT-549 breast was greater than 100 µM in each case.
As for `COc1ccc(-c2nc(-c3ccc(OC)cc3)n(-c3ccccc3)n2)cc1`, the TGI with HT29 colon, in the assay with SK-MEL-5 melanoma, with HOP-92 NSCLC, in the assay with NCI/ADR-RES ovarian, with NCI-H226 lung and in the assay with MDA-N was greater than 100 µM each time. Besides, the TGI with M14 melanoma, with DU-145 prostate and in the assay with BT-549 breast was greater than 100 µM in each case.
In the case of `N/C(=N\N=C\c1cc2ccccc2s1)c1cnccn1`, the TGI in the assay on HT29 colon, in the assay with SK-MEL-5 melanoma, with HOP-92 NSCLC, with NCI/ADR-RES ovarian, in the assay with NCI-H226 lung and in the assay with MDA-N was greater than 100 µM in each case. For the same compound, the TGI in the assay with M14 melanoma, in the assay with DU-145 prostate and in the assay on BT-549 breast was greater than 100 µM in each case.
In the case of `Cc1sc2c(c1C)C(=O)c1cccn1-2`, the TGI in the assay on HT29 colon, with SK-MEL-5 melanoma, in the assay on NCI/ADR-RES ovarian, in the assay with NCI-H226 lung, in the assay on MALME-3M melanoma and with MDA-N was greater than 100 µM throughout. The TGI with M14 melanoma, in the assay on DU-145 prostate and in the assay with BT-549 breast was greater than 100 µM each time.
In the case of `COc1cc(C2CC(C)(N3CCOCC3)Oc3cc4c(cc32)OCO4)cc(OC)c1OC` (stereo not given), the TGI was 1.54 µM in the assay with SK-MEL-5 melanoma; greater than 100 µM in the assay on HOP-92 NSCLC; greater than 100 µM with NCI/ADR-RES ovarian; greater than 88.4 µM in the assay on NCI-H226 lung; greater than 100 µM in the assay with MALME-3M melanoma; 0.439 µM in the assay with MDA-N. In addition, the results for the TGI in the assay on M14 melanoma, in the assay with DU-145 prostate and in the assay with BT-549 breast were greater than 100 µM, greater than 33.1 µM and greater than 100 µM, respectively.
With `COc1c(C)c(C/C=C(\C)CC/C=C(\C)CC/C=C(\C)CCC=C(C)C)c(OC)c(OC)c1OC`, the TGI in the assay on HT29 colon, with SK-MEL-5 melanoma, in the assay with HOP-92 NSCLC, in the assay with NCI/ADR-RES ovarian, in the assay with MDA-N and with M14 melanoma was greater than 100 µM in each case. The TGI in the assay on DU-145 prostate and with BT-549 breast was greater than 100 µM each time.
Consider `CC[C@H](C)[C@H](NC(=O)N(CCC#N)CCN(CCN(C(=O)N[C@@H](Cc1ccccc1)C(=O)OC)c1ccccc1)C(=O)N[C@H](C(=O)OC)C(C)C)C(=O)OC`, for which the TGI came out at 38.4 µM in the assay on SK-MEL-5 melanoma; 23.3 µM with HOP-92 NSCLC; 81.7 µM in the assay on NCI/ADR-RES ovarian; 48.8 µM in the assay with NCI-H226 lung; 35 µM with MALME-3M melanoma; 31.7 µM with MDA-N. Also, the values for the TGI in the assay on M14 melanoma, in the assay on DU-145 prostate and in the assay on BT-549 breast were 44.8 µM, 41.2 µM and 44.7 µM, respectively.
As to `N=c1c2sc3nc4ccccc4n3c2ncn1Cc1ccccc1`, the TGI in the assay on SK-MEL-5 melanoma, with HOP-92 NSCLC, in the assay with NCI/ADR-RES ovarian, with NCI-H226 lung, in the assay with MALME-3M melanoma and in the assay with MDA-N was greater than 100 µM in each case. Moreover, the TGI in the assay on M14 melanoma, in the assay on DU-145 prostate and in the assay on BT-549 breast was greater than 100 µM in each case.
In the case of `O=C(N/N=C(/COc1ccccc1)N=Cc1ccncc1)c1ccncc1`, the TGI in the assay on HT29 colon, with HOP-92 NSCLC, in the assay on NCI/ADR-RES ovarian, with MDA-N, with M14 melanoma and in the assay on DU-145 prostate was greater than 100 µM in each case. This compound also registered a TGI in the assay with BT-549 breast greater than 100 µM.
As for `O=[N+]([O-])c1ccc(CSc2nn(Cc3ccc([N+](=O)[O-])cc3)cc3ncnc2-3)cc1`, the TGI in the assay on HT29 colon was greater than 100 µM; in the assay with SK-MEL-5 melanoma, greater than 100 µM; in the assay on HOP-92 NSCLC, 30.4 µM; with NCI/ADR-RES ovarian, greater than 100 µM; in the assay with NCI-H226 lung, greater than 100 µM; in the assay with MALME-3M melanoma it was 65.2 µM. Also, the TGI was greater than 100 µM in the assay with MDA-N, greater than 100 µM in the assay with M14 melanoma and 84.8 µM with BT-549 breast.
